According to US7745450B2, “Pyrazolo[4,3-d]pyrimidines, processes for their preparation and methods for therapy” (Institute of Experimental Botany, priority 2002, dated 2010):
Where two headings read alike, the source gives them in different places.

Key:
[1] = molecular target: IκB-α kinase; test: IκB-α kinase inhibition, in vitro kinase assay; assay type: biochemical
[2] = molecular target: cdk1/cyclin B (CDC2) (Homo sapiens, UniProt P06493); test: CDK inhibition assay, cdk1/cyclin B (CDC2) kinase, histone phosphorylation; assay type: biochemical
Experimental: Selected compounds were tested for cdk1/cyclin B and cdk2/cyclin E inhibitory activity to determine the basic relationships between their interaction energy of docked complex and the inhibitory activity. Cdk2/cyclin E complex was produced in SIP insect cells co-infected with appropriate baculoviral construct. The cells were harvested 70 hours post infection in lysis buffer (50 mM Tris 7.4 pH, 150 mM NaCl, 5 mM EDTA, 20 mM NaF, 1% Tween 20, protease inhibitors) for 30 min on ice and the soluble fraction was recovered by centrifugation at 14.000 g for 10 min. The protein extract was stored at −80° C. until use. The final point test system for kinase activity measurement was used to carry out experiments on the kinetics under linear conditions. The assay mixture contained 1 mg/ml histone (Sigma Type III-S), 15 μM ATP, 0.2 μCi [γ-^32P] ATP and tested compound in a final volume of 20 μl, all in reaction buffer: 50 mM Hepes 7.4 pH, 10 mM MgCl2, 5 mM EGTA, 10 mM 2-glycerolphosphate, 1 mM NaF, 1 mM DTT and protease inhibitors. […] The measurement of kinase inhibition employed the digital imaging analyzer BAS 1800. The kinase activity was expressed as a percentage of maximum activity and the IC50 value was determined by graphic analysis. The kinase activity is expressed as a percentage of maximum activity, the apparent inhibition constants are determined by graphic analysis from dose-response curves presented on FIG. 1.

[3] = tested on: Cytokinin-dependent tobacco callus Nicotiana tabacum L. cv. Wisconsins 38; test: Tobacco callus bioassay for cytotoxicity (herbicidal activity); assay type: cell-based; settings: Nicotiana tabacum, 672 h
Experimental: The novel compounds have also been tested in tobacco callus bioassay for cytotoxicity (herbicidal activity) and induction of cell death. The compounds to be tested were dissolved in dimethylsulfoxide (DMSO) and the solution brought up to 10^−3 M with distilled water. […] Cytokinin-dependent tobacco callus Nicotiana tabacum L. cv. Wisconsins 38 Murashige-Skoog medium, containing per 1 liter: 4 μmol nicotinic acid, 2.4 μmol pyridoxine hydrochloride, 1.2 μmol thiamine, 26.6 μmol glycine, 1.37 μmol glutamine, 1.8 μmol myo.inositol, 30 g of sucrose, 8 g of agar, […] α-naphthylacetic acid and 0.5 μmol 6-benzylaminopurine. Sub cultivation was carried out every three weeks. Fourteen days before the bioassay, the callus tissue was transferred to the media without 6-benzylaminopurine. Compounds were tested with two different concentrations of 6-benzylaminopurine (10^−5 M and 10^−6 M). Inhibitory growth activity was determined from the increase in fresh callus weight after four weeks of cultivation. Five replicates were prepared for each concentration tested and the entire test was repeated at least twice.

[4] = tested on: B16; test: In vitro cytotoxic activity, Calcein AM; assay type: cell-based; settings: Mus musculus, B16, 72 h, three days
[5] = molecular target: MMK1 protein kinase (Vicia faba, UniProt A0AAV1B7B8); test: MMK1 protein kinase activity; assay type: biochemical
Experimental: Protein extraction and purification of pant CDK by binding to p13^suc1-beads or immunopurification with an antibody specific to the cdc2a-MS protein was carried out as described previously (Bögre et al. 1997, Plant Physiol. 113, 1997, 841-852). The MMK1 protein kinase was purified with a specific antibody from Vicia faba extracts as described by Bögre et al. 1997a, Plant Cell 9, 75-83). Protein kinase activity was measures as described above in Example 20. The quantification of radioactivity incorporated into histone H1 or myelin basic protein was undertaken using phosphoimager (FIG. 2).

[6] = tested on: CEM (human lymphoblastoid leukemia); test: In vitro cytotoxic activity, Calcein AM; assay type: cell-based; settings: Homo sapiens, 72 h, three days
Experimental: We have been using the following cell lines: HELA (human cervical carcinoma), MCF7 (human breast adenocarcinoma), NIH 3T3 (mouse fibroblasts), HOS (human osteogenic sarcoma), HL 60 (human promyelocytic leukemia), G 361 (human malignant melanoma), K562 (human erythroleukemia), CEM (human lymphoblastoid leukemia). Tested drugs were added to the cell cultures in six different concentration and kept at 37° C. and 5% CO2 for three days. All cell lines were grown in DMEM medium (Gibco BRL) supplemented with 10% (v/v) fetal bovine serum and L-glutamine and maintained at 37° C. in a humidified atmosphere with 5% CO2. 10^4 cells were seeded into each well of 96 well plate, allowed to stabilize for at least 2 h and then tested compounds were added at various concentrations ranging from 200 to 0.2 μM in triplicates. Three days after drug addition Calcein AM solution (Molecular Probes) was added and let to enter the cells for 1 hour. Fluorescence of viable cells was quantified employing Fluoroskan Ascent (Microsystems).

[7] = read-out: 10^−5 M BAP IC50, 10^−5 M 6-benzylaminopurine, four weeks
[8] = read-out: 10^−6 M BAP IC50, 10^−6 M 6-benzylaminopurine, four weeks

Sequence of cdk1/cyclin B (CDC2) (P06493 whole entry, species assumed): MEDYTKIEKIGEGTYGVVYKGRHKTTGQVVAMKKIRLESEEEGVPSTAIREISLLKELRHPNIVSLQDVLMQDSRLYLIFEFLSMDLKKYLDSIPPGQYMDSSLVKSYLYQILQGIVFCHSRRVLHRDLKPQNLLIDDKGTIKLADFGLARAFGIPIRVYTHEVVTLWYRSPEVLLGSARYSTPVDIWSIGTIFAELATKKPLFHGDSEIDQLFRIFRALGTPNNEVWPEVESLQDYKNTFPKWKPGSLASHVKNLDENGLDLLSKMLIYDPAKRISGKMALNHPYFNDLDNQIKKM
Sequence of cdk1/cyclin B (CDC2) (P14635 whole entry partner, species assumed): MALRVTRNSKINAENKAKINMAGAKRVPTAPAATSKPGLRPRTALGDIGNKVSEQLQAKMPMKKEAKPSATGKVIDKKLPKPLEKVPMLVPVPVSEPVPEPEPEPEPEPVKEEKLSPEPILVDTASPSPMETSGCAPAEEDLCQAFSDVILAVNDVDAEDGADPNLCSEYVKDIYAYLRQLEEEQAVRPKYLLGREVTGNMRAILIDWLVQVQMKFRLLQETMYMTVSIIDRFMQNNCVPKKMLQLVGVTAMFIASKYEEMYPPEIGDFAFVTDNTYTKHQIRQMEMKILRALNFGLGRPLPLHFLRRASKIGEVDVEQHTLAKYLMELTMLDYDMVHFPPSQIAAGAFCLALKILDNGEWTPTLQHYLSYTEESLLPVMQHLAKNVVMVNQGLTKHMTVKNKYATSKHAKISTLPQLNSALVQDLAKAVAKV
Sequence of MMK1 protein kinase (A0AAV1B7B8 1-394): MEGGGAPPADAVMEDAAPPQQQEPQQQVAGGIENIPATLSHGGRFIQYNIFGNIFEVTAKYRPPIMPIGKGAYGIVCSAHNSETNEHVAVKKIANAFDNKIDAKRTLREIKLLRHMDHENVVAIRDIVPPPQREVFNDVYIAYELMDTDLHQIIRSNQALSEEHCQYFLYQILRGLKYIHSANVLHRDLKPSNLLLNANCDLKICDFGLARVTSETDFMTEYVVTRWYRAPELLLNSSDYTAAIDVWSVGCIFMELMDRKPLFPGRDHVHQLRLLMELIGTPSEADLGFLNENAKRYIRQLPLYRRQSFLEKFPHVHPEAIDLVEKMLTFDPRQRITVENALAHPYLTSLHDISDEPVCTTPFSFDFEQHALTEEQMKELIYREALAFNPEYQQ

Structure (SMILES) | IC50 [1] [µM] | IC50 [2] [µM] | IC50 [3, 7] [µM] | IC50 [3, 8] [µM] | GI50 [4] [µM] | IC50 [5] [µM] | GI50 [6] [µM]
CC(C)c1n[nH]c2c(NCc3ccccc3)nc(NC3CCCCC3N)nc12 (centres unmarked) | 0.02 | 0.01 | > 50 | 36 | – | – | –
Cc1n[nH]c2c(Nc3ccc(Cl)c(C(=O)O)c3)nc(NCCO)nc12 | – | – | – | – | 7.2 | 0.3 | 6.5
Cc1n[nH]c2c(Nc3ccc(O)c(C(=O)O)c3)nc(NCCO)nc12 | – | – | – | – | 15.8 | 0.7 | 12.4
Cc1n[nH]c2c(Nc3ccc(C(=O)O)c(Cl)c3)nc(NCCO)nc12 | – | – | – | – | 9.2 | 0.16 | 8.9
Cc1n[nH]c2c(Nc3cc(N)cc(Cl)c3)nc(NCCO)nc12 | – | – | – | – | 14.5 | 0.3 | 13.4
Cc1n[nH]c2c(Nc3cccc(Cl)c3)nc(NCCO)nc12 | – | – | – | – | 9.8 | 0.9 | 8.9
Cc1n[nH]c2c(NCc3ccc(O)c(O)c3)nc(NCCO)nc12 | – | – | – | – | 18.7 | 24 | 15.5
CC(=O)Oc1ccccc1CNc1nc(N[C@@H](CO)C(C)C)nc2c(C(C)C)n[nH]c12 | – | – | – | – | 10.9 | 0.012 | 8.7
CC(=O)c1ccccc1CNc1nc(N[C@@H](CO)C(C)C)nc2c(C(C)C)n[nH]c12 | – | – | – | – | 18.2 | 0.05 | 14.5
COc1cccc(CNc2nc(N[C@@H](CO)C(C)C)nc3c(C(C)C)n[nH]c23)c1O | – | – | – | – | 9.1 | 0.015 | 9.7
CC(C)c1n[nH]c2c(NCc3ccc(Cl)c(N)c3N)nc(N[C@@H](CO)C(C)C)nc12 [listing 1 of 2 here] | – | – | – | – | 12.4 | 0.04 | 8.2
CC(C)c1n[nH]c2c(NCc3ccc(Cl)c(N)c3N)nc(N[C@@H](CO)C(C)C)nc12 [listing 2 of 2 here] | 0.04 | 0.02 | 15.6 | 0.4 | – | – | –
CC(=O)c1cccc(CNc2nc(N[C@@H](CO)C(C)C)nc3c(C(C)C)n[nH]c23)c1 | – | – | – | – | 9.4 | 0.005 | 8.6
CC(C)c1n[nH]c2c(Nc3cc(N)cc(Cl)c3)nc(N[C@@H](CO)C(C)C)nc12 | – | – | – | – | 14.5 | 0.015 | 9.5
CC(C)c1n[nH]c2c(NCc3ccc(O)c(O)c3)nc(N[C@@H](CO)C(C)C)nc12 | – | – | – | – | 5.8 | 0.31 | 4.2
CC(C)c1n[nH]c2c(N(C)CCc3ccc(O)c(O)c3)nc(N[C@@H](CO)C(C)C)nc12 | – | – | – | – | 9.7 | 0.15 | 8.4
CC(C)c1n[nH]c2c(N(C)Cc3ccc(O)c(O)c3)nc(N[C@@H](CO)C(C)C)nc12 | – | – | – | – | 4.8 | 0.11 | 3.5
CC(C)c1n[nH]c2c(NC(CO)c3ccccc3)nc(NC(CO)C(C)C)nc12 (centres unmarked) | – | – | – | – | 4.8 | 0.15 | 2.6
CC(C)c1n[nH]c2c(NCc3ccccc3)nc(N[C@@H](CO)C(C)C)nc12 | 0.01 | 0.004 | > 50 | 14 | – | – | –
CC[C@H](CO)Nc1nc(NCc2ccccc2OC(C)=O)c2[nH]nc(C(C)C)c2n1 | 0.2 | 0.1 | 45 | 12.4 | – | – | –
CC[C@H](CO)Nc1nc(NCc2c(N)cccc2Cl)c2[nH]nc(C(C)C)c2n1 | – | – | – | – | 8.3 | 0.0035 | 4.6

Structure (SMILES) | IC50 [1] [µM] | IC50 [2] [µM] | IC50 [3, 7] [µM] | IC50 [3, 8] [µM] | GI50 [4] [µM] | IC50 [5] [µM] | GI50 [6] [µM]
CC[C@H](CO)Nc1nc(NCc2cccc(Cl)c2O)c2[nH]nc(C(C)C)c2n1 | 0.012 | 0.007 | 46 | 6.7 | – | – | –
CC[C@H](CO)Nc1nc(NCc2cccc(OC)c2O)c2[nH]nc(C(C)C)c2n1 | 0.012 | 0.004 | > 50 | 14.8 | – | – | –
CC[C@H](CO)Nc1nc(NCc2cccc(C)c2O)c2[nH]nc(C(C)C)c2n1 | 0.014 | 0.006 | > 50 | 12.3 | – | – | –
CC[C@H](CO)Nc1nc(NCc2ccc(Cl)c(N)c2N)c2[nH]nc(C(C)C)c2n1 | – | – | – | – | 9.9 | 0.4 | 4.6
CC[C@H](CO)Nc1nc(NCc2cccc(OC(C)=O)c2)c2[nH]nc(C(C)C)c2n1 | 0.4 | 0.07 | > 50 | 28.7 | – | – | –
CC[C@H](CO)Nc1nc(Nc2ccc(Cl)c(N)c2)c2[nH]nc(C(C)C)c2n1 | 0.013 | 0.004 | 26 | 1.5 | – | – | –
CC[C@H](CO)Nc1nc(NCc2ccc(Cl)c(N)c2)c2[nH]nc(C(C)C)c2n1 | – | – | – | – | 18.7 | 0.024 | 11.4
CC[C@H](CO)Nc1nc(Nc2ccc(Cl)c(C(=O)O)c2)c2[nH]nc(C(C)C)c2n1 | 0.002 | 0.001 | 28 | 1.5 | – | – | –
CC[C@H](CO)Nc1nc(Nc2ccc(O)c(C(=O)O)c2)c2[nH]nc(C(C)C)c2n1 | 0.03 | 0.01 | > 50 | > 50 | – | – | –
CC[C@H](CO)Nc1nc(Nc2ccc(N)c(Cl)c2)c2[nH]nc(C(C)C)c2n1 | 0.009 | 0.002 | 48 | 8.7 | – | – | –
CC[C@H](CO)Nc1nc(Nc2ccc(C(=O)O)c(Cl)c2)c2[nH]nc(C(C)C)c2n1 | 0.004 | 0.002 | > 50 | 12.8 | – | – | –
CC[C@H](CO)Nc1nc(Nc2cc(N)cc(Cl)c2)c2[nH]nc(C(C)C)c2n1 | 0.02 | 0.004 | 36 | 2.8 | – | – | –
CC[C@H](CO)Nc1nc(Nc2ccc(Br)cc2)c2[nH]nc(C(C)C)c2n1 | 0.01 | 0.002 | 38 | 4.3 | – | – | –
CC[C@H](CO)Nc1nc(Nc2ccc(Cl)cc2)c2[nH]nc(C(C)C)c2n1 | 0.009 | 0.003 | 35 | 3.9 | – | – | –
CC[C@H](CO)Nc1nc(N(C)CCc2ccc(O)c(O)c2)c2[nH]nc(C(C)C)c2n1 | – | – | – | – | 18.6 | 1.5 | 13.1
CC[C@H](CO)Nc1nc(N(C)Cc2ccc(O)c(O)c2)c2[nH]nc(C(C)C)c2n1 | – | – | – | – | 19.4 | 0.51 | 11.6
CCC(CO)Nc1nc(NC(CO)c2ccccc2)c2[nH]nc(C(C)C)c2n1 (centres unmarked) | – | – | – | – | 13.7 | 0.21 | 7.9
CC[C@H](CO)Nc1nc(Nc2ccccc2)c2[nH]nc(C(C)C)c2n1 | 0.11 | 0.02 | 48 | 6.2 | – | – | –
CC[C@H](CO)Nc1nc(NCc2ccccc2)c2[nH]nc(C(C)C)c2n1 | 0.03 | 0.01 | > 50 | 28 | – | – | –
Cc1n[nH]c2c(NCc3ccccc3)nc(NCCN)nc12 [2-aminoethylamino; benzylamino; methyl] | 5 | 2 | > 50 | > 50 | – | – | –
Cc1n[nH]c2c(NCc3ccccc3)nc(NCCCN)nc12 [3-aminopropylamino; benzylamino; methyl] | 0.4 | 0.2 | > 50 | 45 | – | – | –
